Results from PMC6748671, “Distribution of Small Molecular Weight Drugs into the Porcine Lens: Studies on Imaging Mass Spectrometry, Partition Coefficients, and Implications in Ocular Pharmacokinetics” (Molecular Pharmaceutics, 2019).
Read-outs that look alike come from different tables or passages of the source.

Legend:
[1] = In vitro lens/buffer partition coefficient (Kp), isolated porcine lens, cassette mix, LC–MS/MS; details: for Kp at 4 h: pig, isolated porcine lens
[2] = Pharmacokinetic simulation of topical timolol instillation with lens compartment; parameters: species or system rabbit
Method: A pharmacokinetic simulation model for rabbit was built for topical timolol instillation based on the model of Ranta et al.[25] The lens compartment, separate from the reservoir compartment, was added to the model (Figure 1). The unknown parameter values for timolol distribution clearance between aqueous humor and lens (QLENS), Kp, and clearance from tear fluid to cornea (CLTF,CO) were obtained by adjusting the values manually until the simulated concentration in the lens matched with in vivo data on timolol distribution to the rabbit lens.[26] Finally, the distribution clearance between the aqueous humor and the reservoir (QRESERVOIR) and the volume of the reservoir (VRESERVOIR) were adjusted to match the corresponding parameters in the original model. For details of the model building and parameters, see the Supporting Information. STELLA software (v8.1.1, isee systems) was used to construct the simulation model.
Kinetic simulations were carried out to estimate how drug partitioning into the lens might affect ocular pharmacokinetics after single and multiple doses of eye drops. […] The run time was 7 days and the delta time was 0.5 min.
Pharmacokinetic simulations
The pharmacokinetic simulation model was built on a model of topical timolol instillation4, where a lens compartment, separate from the reservoir compartment, was added . Experimental concentration -time data, extracted with Webplotdigitizer ( v4.2, https://automeris.io/WebPlotDig-itizer), in the aqueous humor and lens after topical dosing of timolol 5 was used as a basis for the […]
The timolol distribution clearance between aqueous humor and lens (QLENS), lens-buffer partition coefficient (Kp) and clearance from tear fluid to cornea (CL TF,CO) were obtained by com-paring the simulated curves with experimental in vivo data on timolol distribution in the rabbit […]
and QLENS values, the distribution clearance between aqueous humor and reservoir (QRESERVOIR) and volume of the reservoir (VRESERVOIR) were changed to match the corresponding parameters in the original model4 (Supplementary table 1).
Supplementary figure 6. Adjustment of the lens-aqueous humor partition coefficient (Kp), the clearance between aqueous humor and lens (QLENS) and clearance from tear fluid to cornea (CLTF,CO) with experimental data5.
(1 picture or pasted object on this page, not shown here)
Supplementary table 1. Parameters for the pharmacokinetic simulation model.

[3] = rabbit model parameter, cited from earlier work
[4] = cited from earlier work
in vitro = details: pig
[5] = Drug distribution in the porcine lens by MALDI-IMS; details: for share of total lens volume into which the drugs distributed: pig, 4 h; for distribution pattern in the lens (MALDI-IMS): porcine lens, 4 h in vitro incubation
Method: After 4 h, the buffer was removed from the vials and the lenses were rinsed with HBSS–HEPES and gently blotted dry. The lenses were weighed, snap-frozen with liquid nitrogen in flat-bottomed plastic tubes, and then stored at −80 °C until sample preparation and analysis with MALDI-IMS. For the experiment, a smaller set of 16 drugs was used.
The frozen lenses were mounted onto a chuck using an optimal cutting temperature compound (Sakura Finetek, CA, USA) on the equatorial side. The lenses were sectioned to 10 μm thickness at −20 °C on a Leica CM Cryostat (S3050, Leica Microsystems GmbH, Germany), equipped with a FEATHER Microtome C35 blade (pfm medical, UK), and collected on a cryofilm (3C16UF, SECTION-LAB Co. Ltd. Yokohama, Japan) by modified Kawamoto method.[23] The film was subsequently mounted onto a microscopy glass slide using a double-sided copper tape. The slides were washed twice with 50 mM ammonium formate for 30 s and dried in a vacuum desiccator. The sample slides contained three lens sections from the drug mixture experiment and three blanks. […] Matrix α-cyano-4-hydroxycinnamic acid (7 mg/mL in 50% acetonitrile containing 1% trifluoro acetic acid) (Sigma-Aldrich, St. Louis, MO, USA) was added via spray deposition using 10 passes, flow rate of 100 μL/min, temperature of 77 °C, track spacing of 2.5 mm, and velocity of 1300 mm/min (HTX Industries, TM-Sprayer, NC, USA).
MALDI Fourier transform-ion cyclotron resonance (FT-ICR)-IMS was performed using a Bruker 7T solariX XR mass spectrometer (Bruker Daltonics, Germany) at a 75 μm spatial resolution.
The drugs were identified as their [M + H]^+ ions. Peak finding was performed using mass error less than 2.5 ppm. MALDI images for each detected compound were plotted using a 0.01 μ mass window. From the images of the individual drugs, the intensity profiles across a 30 pixel (2.25 mm) wide area in anterior–posterior axis were plotted with ImageJ software (National Institutes of Health, USA).

[6] = pH 7.0; cited from earlier work
[7] = parameters: method as in PMID 2724118; details: lowest Kp of previous reports; cited from earlier work
[8] = parameters: method as in PMID 7341754, PMID 2724118; details: in rabbit and human; cited from earlier work
[9] = parameters: method as in PMID 1898917; details: highest Kp of previous reports; cited from earlier work
[10] = rabbit, adjusted from original model
[11] = rabbit, adjusted with experimental in vivo data

## CC(=O)/N=c1/sc(S(N)(=O)=O)nn1C [methazolamide]
[1]
  Kp at 4 h: 0.047

## CC(C)(C)NC[C@H](O)COc1nsnc1N1CCOCC1 [timolol]
[2]; [10]
  QRESERVOIR (distribution clearance between aqueous humor and reservoir): 11.888 µL/min
  VRESERVOIR (reservoir volume): 262 µL
[2]; [11]
  CLTF,CO (clearance from tear fluid to cornea): 1.3 µL/min
  QLENS (distribution clearance between aqueous humor and lens): 0.6 µL/min
[2]; topical, rabbit lens, adjusted manually to in vivo data on timolol distribution (Lee et al.), read-out: Kp (lens-buffer partition coefficient), model parameter
  Kp: 0.35
[3]; aqueous humor, ref SI 4, 8
  kel (elimination rate constant): 0.057 min⁻¹
[3]; ref SI 4, 7
  CLTF,CJ (clearance from tear fluid by conjunctival absorption): 10.4 µL/min
[4]
  concentration in the lens in vivo compared with aqueous humor, iris and ciliary body: much lower

## CC(C)NCC(O)COc1cccc2ccccc12 (centres unmarked) [propranolol]
In vitro
  Kp at 4 h: 0.762
[5]
  share of total lens volume into which the drugs distributed: 27.1%

## O=C(O)Cc1ccccc1Nc1c(Cl)cccc1Cl [diclofenac]
[1]; porcine lens in vitro, incubation time 4 h (Figure S7)
  concentration equilibrium between incubate and lens at 4 h: would have required longer incubation time to reach true equilibria

## C[C@@H]1C[C@H]2[C@@H]3CCC4=CC(=O)C=C[C@]4(C)[C@@]3(F)[C@@H](O)C[C@]2(C)[C@@]1(O)C(=O)CO [dexamethasone]
[4]
  concentration in the lens in vivo compared with aqueous humor, iris and ciliary body: much lower

## CCN(CC)c1ccc2c(-c3ccccc3C(=O)O)c3ccc(=[N+](CC)CC)cc-3oc2c1 [Rhodamine-B]
[6]
  experimental log D7.0: 2

## CC(C)NCC(O)COc1cccc2[nH]ccc12 (centres unmarked) [pindolol]
[5]
  share of total lens volume into which the drugs distributed: 27.1%

## O=C1OC2(c3ccc(O)cc3Oc3cc(O)ccc32)c2ccccc21 [fluorescein sodium]
[6]
  experimental log D7.0: 0.1

## CC[C@@H]1C(=O)OC[C@@H]1Cc1cncn1C [pilocarpine]
[1]
  Kp at 4 h: 0.145
[5]
  share of total lens volume into which the drugs distributed: 27.1%
  distribution pattern in the lens (MALDI-IMS): only in the capsule and cortex of the lens but not in the nucleus
[7]
  lens Kp in previous reports: about 0.3
[4]
  concentration in the lens in vivo compared with aqueous humor, iris and ciliary body: much lower
[8]
  lens Kp, previous literature: 0.3–1.0

## Rhodamine-123
[6]
  experimental log D7.0: 0.4

## Clc1ccc2nsnc2c1NC1=NCCN1 [tizanidine]
[5]
  share of total lens volume into which the drugs distributed: 27.1%
  distribution pattern in the lens (MALDI-IMS): only in the capsule and cortex of the lens but not in the nucleus

## CCCCCOc1ccc(C2SC(=O)NC2=O)cc1OCC (centres unmarked) [CT-112]
[9]
  lens Kp in previous reports: 8
